Experimental data reported in patent US8148391B2 (Cephalon, Inc., priority 2006, dated 2012).
Read-outs that look alike come from different tables or passages of the source.

Assays:
[1] = target: T1, baculovirus-expressed ALK (Homo sapiens, UniProt Q9UM73); assay: ALK Kinase Assay (ELISA-type, time-resolved fluorescence); format: biochemical
T1 construct: host or cells: baculovirus expression system
In short: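 Substrate coating: phospholipase C-γ, 10 μg/mL in TBS. Kinase step: 30 ng/ml ALK, 15 min, 37° C. Detection and analysis: Eu-N1 PT66 antibody, with IC50 fitted as a sigmoidal variable-slope dose-response curve.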

[2] = target: T2, c-Met (cytoplasmic domain) (Homo sapiens, UniProt P08581); assay: c-Met Kinase Assay (same methods as for ALK, with modifications); format: biochemical
T2 construct: 10 ng/mL c-Met (cytoplasmic domain, Invitrogen Corporation #PV3143); purchased Invitrogen Corporation PV3143
In short: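 This plate-based kinase format uses immobilized phospholipase C-γ as substrate, phosphorylated by c-Met cytoplasmic domain (10 ng/mL) at 37° C for 15 minutes.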

[3] = 1 μM ATP (Km level), 30 ng/ml ALK, 37° C., 15 minutes, read-out: ALK Activity (ALK kinase inhibition, IC50 class)
[4] = 1 μM ATP (Km level), 10 ng/mL c-Met, read-out: cMet Activity (c-Met kinase inhibition, IC50 class)
[5] = ALK kinase inhibition, 1 μM ATP (Km level), read-out: ALK Activity
[6] = c-Met kinase inhibition, 1 μM ATP (Km level), read-out: cMet Activity
[7] = 1 μM ATP (Km level), read-out: ALK Activity (ALK Kinase Inhibition, IC50)
[8] = 1 μM ATP (Km level), read-out: cMet Activity (c-Met Kinase Inhibition, IC50)
[9] = ALK kinase inhibition, 1 μM ATP, read-out: ALK Activity
[10] = c-Met kinase inhibition, 1 μM ATP, read-out: cMet Activity

T2 sequence (P08581 956-1390 limits assumed): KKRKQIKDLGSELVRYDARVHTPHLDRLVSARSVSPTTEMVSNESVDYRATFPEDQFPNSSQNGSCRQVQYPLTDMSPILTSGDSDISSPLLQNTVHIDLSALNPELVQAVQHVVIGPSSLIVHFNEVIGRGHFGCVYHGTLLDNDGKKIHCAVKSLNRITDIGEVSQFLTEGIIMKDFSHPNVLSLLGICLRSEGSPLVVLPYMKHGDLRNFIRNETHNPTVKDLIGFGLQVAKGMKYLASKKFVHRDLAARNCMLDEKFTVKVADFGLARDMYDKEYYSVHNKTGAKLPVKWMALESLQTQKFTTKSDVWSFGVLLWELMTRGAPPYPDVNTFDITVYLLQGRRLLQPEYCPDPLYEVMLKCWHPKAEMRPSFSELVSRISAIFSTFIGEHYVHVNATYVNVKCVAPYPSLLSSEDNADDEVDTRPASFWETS
T1 sequence (Q9UM73 19-1620): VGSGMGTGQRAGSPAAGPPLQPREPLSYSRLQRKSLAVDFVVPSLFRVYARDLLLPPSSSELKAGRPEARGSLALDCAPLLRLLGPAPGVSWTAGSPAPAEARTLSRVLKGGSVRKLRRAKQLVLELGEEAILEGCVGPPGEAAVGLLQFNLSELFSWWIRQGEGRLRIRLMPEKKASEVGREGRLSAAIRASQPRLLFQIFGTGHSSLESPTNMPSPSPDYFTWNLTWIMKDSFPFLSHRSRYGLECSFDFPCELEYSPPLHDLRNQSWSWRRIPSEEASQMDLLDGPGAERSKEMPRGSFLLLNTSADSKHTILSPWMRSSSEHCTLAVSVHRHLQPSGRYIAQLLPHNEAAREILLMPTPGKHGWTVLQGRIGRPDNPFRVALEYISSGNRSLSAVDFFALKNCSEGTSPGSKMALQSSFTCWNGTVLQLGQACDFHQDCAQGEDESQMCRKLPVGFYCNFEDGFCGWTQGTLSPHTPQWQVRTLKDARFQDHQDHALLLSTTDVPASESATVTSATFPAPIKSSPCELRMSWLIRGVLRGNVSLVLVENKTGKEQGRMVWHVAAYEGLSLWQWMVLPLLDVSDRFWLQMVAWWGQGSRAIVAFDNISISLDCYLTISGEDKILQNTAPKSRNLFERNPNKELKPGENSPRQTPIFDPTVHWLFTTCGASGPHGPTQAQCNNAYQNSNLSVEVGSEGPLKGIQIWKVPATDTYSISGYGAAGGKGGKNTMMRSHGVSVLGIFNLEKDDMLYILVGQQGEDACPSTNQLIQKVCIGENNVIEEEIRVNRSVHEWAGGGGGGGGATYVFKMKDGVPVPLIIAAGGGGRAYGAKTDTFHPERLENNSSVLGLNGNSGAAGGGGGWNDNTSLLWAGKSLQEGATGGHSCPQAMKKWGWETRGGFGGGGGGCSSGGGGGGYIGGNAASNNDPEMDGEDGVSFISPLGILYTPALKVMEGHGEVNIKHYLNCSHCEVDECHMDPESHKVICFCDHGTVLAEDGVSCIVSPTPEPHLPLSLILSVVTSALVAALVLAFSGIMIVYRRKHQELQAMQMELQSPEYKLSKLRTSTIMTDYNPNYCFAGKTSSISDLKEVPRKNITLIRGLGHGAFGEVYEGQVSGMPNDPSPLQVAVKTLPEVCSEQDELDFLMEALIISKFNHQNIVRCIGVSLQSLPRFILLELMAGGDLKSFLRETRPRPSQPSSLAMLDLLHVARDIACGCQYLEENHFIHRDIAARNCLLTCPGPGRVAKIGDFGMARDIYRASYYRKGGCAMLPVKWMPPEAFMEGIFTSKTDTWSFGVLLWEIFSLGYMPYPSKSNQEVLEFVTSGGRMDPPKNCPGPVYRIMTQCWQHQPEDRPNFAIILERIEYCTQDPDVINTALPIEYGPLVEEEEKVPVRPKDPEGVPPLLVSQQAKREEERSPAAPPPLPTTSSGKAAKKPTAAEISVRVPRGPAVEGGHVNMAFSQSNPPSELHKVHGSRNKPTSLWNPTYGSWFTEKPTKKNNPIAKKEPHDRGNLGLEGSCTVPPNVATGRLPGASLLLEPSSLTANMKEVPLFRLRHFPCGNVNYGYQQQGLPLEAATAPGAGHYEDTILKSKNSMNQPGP

Compound	IC50 [1, 3] [nM]	IC50 [2, 4] [nM]	also measured
CNC(=O)c1cccc(F)c1Nc1nc(Nc2ccc3c(c2)NC(=O)CCO3)ncc1Cl [Example 1221, 2-[5-Chloro-2-(8-oxo-6,7,8,9-tetrahydro-5-oxa-9-aza-benzocyclohepten-2-ylamino)-pyrimidin-4-ylamino]-3-fluoro-N-methyl-benzamide]	100 to 1000	< 100	
CC(C)N1CC2CC(C1)c1cc(Nc3ncc(Cl)c(N[C@@H]4CCCC[C@H]4NS(C)(=O)=O)n3)ccc12 (stereo partly drawn) [Example 165, N-{(1R,2R)-2-[5-Chloro-2-(10-isopropyl-10-aza-tricyclo[6.3.1.0*2,7*]dodeca-2,4,6-trien-4-ylamino)-pyrimidin-4-ylamino]-cyclohexyl}-methanesulfonamide]			IC50 [1, 5]: 100 to 1000 nM; IC50 [2, 6]: 1000 to 10000 nM
COCCCNC(=O)c1ccccc1Nc1nc(Nc2ccc3c(c2)CCN(CCOC)CC3)ncc1Cl [Example 1399, {5-Chloro-2-[3-(2-methoxy-ethyl)-2,3,4,5-tetrahydro-1H-benzo[d]azepin-7-ylamino]-pyrimidin-4-ylamino}-N-(3-methoxy-propyl)-benzamide]	< 100	1000 to 10000	
CNC(=O)CN1CCc2cc(Nc3ncc(Cl)c(Nc4ccc(N5CCN(C)CC5)cc4OC)n3)c(OC)cc2CC1 [Example 783, 2-(7-{5-Chloro-4-[2-methoxy-4-(4-methyl-piperazin-1-yl)-phenylamino]-pyrimidin-2-ylamino}-8-methoxy-1,2,4,5-tetrahydro-benzo[d]azepin-3-yl)-N-methyl-acetamide]			IC50 [1, 7]: < 100 nM; IC50 [2, 8]: > 10000 nM
CCN1C(=O)CCCc2cc(Nc3ncc(Cl)c(Nc4ccccc4OC)n3)c(OC)cc21 [Example 1318, 7-[5-Chloro-4-(2-methoxy-phenylamino)-pyrimidin-2-ylamino]-1-ethyl-8-methoxy-1,3,4,5-tetrahydro-benzo[b]azepin-2-one]	100 to 1000	> 10000	
CCOC(=O)N1CCCOc2cc(Nc3ncc(Cl)c(Nc4ccsc4C(=O)NC)n3)ccc21 [Example 1418, 3-[5-Chloro-4-(2-methylcarbamoyl-thiophen-3-ylamino)-pyrimidin-2-ylamino]-7,8-dihydro-6H-5-oxa-9-aza-benzocycloheptene-9-carboxylic acid ethyl ester]	100 to 1000	100 to 1000	
CNC(=O)c1cccc(F)c1Nc1nc(Nc2ccc3c(c2)-n2cccc2C(=O)CO3)ncc1Cl [Example 1268, 2-[5-Chloro-2-(4-oxo-4,5-dihydro-6-oxa-10b-aza-benz[e]azulen-9-ylamino)-pyrimidin-4-ylamino]-3-fluoro-N-methyl-benzamide]	100 to 1000	< 100	
CNC(=O)c1sccc1Nc1nc(Nc2ccc3c(c2)OCCCN3C(=O)OCCCN(C)C)ncc1Cl [Example 1428, 3-[5-Chloro-4-(2-methylcarbamoyl-thiophen-3-ylamino)-pyrimidin-2-ylamino]-7,8-dihydro-6H-5-oxa-9-aza-benzocycloheptene-9-carboxylic acid 3-dimethylamino-propyl ester]	100 to 1000	100 to 1000	
CCN1C(=O)[C@@H](NC(=O)CN(C)C)CCc2c1ccc(Nc1ncc(Cl)c(N[C@H]3[C@@H](C(N)=O)[C@@H]4C=C[C@H]3C4)n1)c2OC (single isomer, unassigned) [Example 1355]	< 100	> 10000	
COc1ccc(Nc2nc(Nc3ccc4c(c3)CCC(O)CC4)ncc2Cl)c2c1CN(C)C2=O (stereo not drawn) [Example 938, 7-[5-Chloro-2-(7-hydroxy-6,7,8,9-tetrahydro-5H-benzocyclohepten-2-ylamino)-pyrimidin-4-ylamino]-4-methoxy-2-methyl-2,3-dihydro-isoindol-1-one]			IC50 [1, 7]: 100 to 1000 nM; IC50 [2, 8]: 1000 to 10000 nM
CCN1CCCOc2cc(Nc3ncc(Cl)c(Nc4ccsc4C(=O)NC)n3)ccc21 [Example 1409, 3-[5-Chloro-2-(9-ethyl-6,7,8,9-tetrahydro-5-oxa-9-aza-benzocyclohepten-3-ylamino)-pyrimidin-4-ylamino]-thiophene-2-carboxylic acid methyl amide]	100 to 1000	100 to 1000	
CNC(=O)CN1CCc2ccc(Nc3ncc(Cl)c(Nc4c(Cl)cccc4C(=O)NC)n3)cc2CC1 [Example 1373, 3-Chloro-2-[5-chloro-2-(3-methylcarbamoylmethyl-2,3,4,5-tetrahydro-1H-benzo[d]azepin-7-ylamino)-pyrimidin-4-ylamino]-N-methyl-benzamide]	100 to 1000	< 100	
CNC(=O)c1cccc(F)c1Nc1nc(Nc2ccc3c(c2)CCN(C(=O)C2COCCO2)CC3)ncc1Cl (stereo not drawn) [Example 639, 2-{5-Chloro-2-[3-([1,4]dioxane-2-carbonyl)-2,3,4,5-tetrahydro-1H-benzo[d]azepin-7-ylamino]-pyrimidin-4-ylamino}-3-fluoro-N-methyl-benzamide]			IC50 [1, 7]: < 100 nM; IC50 [2, 8]: < 100 nM
CN(CCC#N)C(=O)c1ccccc1Nc1nc(Nc2ccc3c(c2)CCCC(=O)N3C)ncc1Cl [Example 1682, 2-[5-Chloro-2-(1-methyl-2-oxo-2,3,4,5-tetrahydro-1H-benzo[b]azepin-7-ylamino)-pyrimidin-4-ylamino]-N-(2-cyano-ethyl)-N-methyl-benzamide]			IC50 [1, 9]: < 100 nM; IC50 [2, 10]: 100 to 1000 nM
N#CCNC(=O)c1cccc(F)c1Nc1nc(Nc2ccc3c(c2)CCCC(=O)N3)ncc1Cl [Example 1046, 2-[5-Chloro-2-(2-oxo-2,3,4,5-tetrahydro-1H-benzo[b]azepin-7-ylamino)-pyrimidin-4-ylamino]-N-cyanomethyl-3-fluoro-benzamide]	< 100	< 100	
COCCN1CCc2ccc(Nc3ncc(Cl)c(N[C@@H]4CCC[C@H](N(CC#N)S(C)(=O)=O)C4)n3)cc2CC1 (relative stereo) [Example 1386, rel-N-((1S,3R)-3-{5-Chloro-2-[3-(2-methoxy-ethyl)-2,3,4,5-tetrahydro-1H-benzo[d]azepin-7-ylamino]-pyrimidin-4-ylamino}-cyclohexyl)-N-cyanomethyl-methanesulfonamide]	100 to 1000	1000 to 10000	
CNC(=O)c1ccccc1Nc1nc(Nc2cc3c(cc2OC)N(C)C(=O)OCC3)ncc1Cl [Example 1505, 2-[5-Chloro-2-(3-methoxy-5-methyl-6-oxo-5,6,8,9-tetrahydro-7-oxa-5-aza-benzocyclohepten-2-ylamino)-pyrimidin-4-ylamino]-N-methyl-benzamide]			IC50 [1, 9]: < 100 nM; IC50 [2, 10]: 1000 to 10000 nM
CNC(=O)c1ccccc1Nc1nc(Nc2cccc3c2N(C)CCN(C)C3=O)ncc1Cl [Example 541, 2-[5-Chloro-2-(1,4-dimethyl-5-oxo-2,3,4,5-tetrahydro-1H-benzo[e][1,4]diazepin-9-ylamino)-pyrimidin-4-ylamino]-N-methyl-benzamide]			IC50 [1, 7]: 100 to 1000 nM; IC50 [2, 8]: > 10000 nM
NC(=O)[C@@H]1CCCC[C@H]1Nc1nc(Nc2ccc3c(c2)CCC(NCC(F)(F)F)CC3)ncc1Cl (stereo partly drawn) [Example 653]			IC50 [1, 7]: < 100 nM; IC50 [2, 8]: 100 to 1000 nM
COCCN1CCc2ccc(Nc3ncc(Cl)c(N[C@@H]4CCCC[C@H]4NS(=O)(=O)CC(F)(F)F)n3)cc2CC1 [Example 452, 2,2,2-Trifluoro-ethanesulfonic acid ((1R,2R)-2-{5-chloro-2-[3-(2-methoxy-ethyl)-2,3,4,5-tetrahydro-1H-benzo[d]azepin-7-ylamino]-pyrimidin-4-ylamino}-cyclohexyl)-amide]			IC50 [1, 5]: < 100 nM; IC50 [2, 6]: 1000 to 10000 nM
CCN1CC(=O)N(C)c2cc(Nc3ncc(Cl)c(N[C@@H]4CCCC[C@H]4NS(C)(=O)=O)n3)c(OC)cc2C1 [Example 745, N-[(1R,2R)-2-[5-Chloro-2-(4-ethyl-7-methoxy-1-methyl-2-oxo-2,3,4,5-tetrahydro-1H-benzo[e][1,4]diazepin-8-ylamino)-pyrimidin-4-ylamino]-cyclohexyl}-methanesulfonamide]			IC50 [1, 7]: 100 to 1000 nM; IC50 [2, 8]: > 10000 nM
C#CCNC(=O)c1cccc(F)c1Nc1nc(Nc2ccc3c(c2)OCCCN3CCN2CCCC2)ncc1Cl [Example 1719, 2-{5-Chloro-2-[9-(2-pyrrolidin-1-yl-ethyl)-6,7,8,9-tetrahydro-5-oxa-9-aza-benzocyclohepten-3-ylamino]-pyrimidin-4-ylamino}-3-fluoro-N-prop-2-ynyl-benzamide]			IC50 [1, 9]: < 100 nM; IC50 [2, 10]: < 100 nM
COCCN(C)S(=O)(=O)c1ccccc1Nc1nc(Nc2cc3c(cc2OC)CCN(CC(=O)N(C)C)CC3)ncc1Cl [Example 1184, 2-[7-(5-Chloro-4-{2-[(2-methoxy-ethyl)-methyl-sulfamoyl]-phenylamino}-pyrimidin-2-ylamino)-8-methoxy-1,2,4,5-tetrahydro-benzo[d]azepin-3-yl]-N,N-dimethyl-acetamide]	< 100	> 10000	
Cc1cccc(C(N)=O)c1Nc1nc(Nc2ccc3c(c2)NC(=O)CCC3(C)C)ncc1Cl [Example 1577, 2-[5-Chloro-2-(5,5-dimethyl-2-oxo-2,3,4,5-tetrahydro-1H-benzo[b]azepin-8-ylamino)-pyrimidin-4-ylamino]-3-methyl-benzamide]			IC50 [1, 9]: 1000 to 10000 nM; IC50 [2, 10]: 100 to 1000 nM
